Reference: ChEMBL document CHEMBL5614416, “Discovery of novel thiophene[3,2-d]pyrimidine-based tubulin inhibitors with enhanced antitumor efficacy for combined use with anti-pd-l1 immunotherapy in melanoma” (Eur J Med Chem, 2024)
Active and inactive are the calls of the source. The rule behind the calls is not given here.

Columns and labels:
[1] = test system: MCF7; assay: Inhibition of cell migration in human MCF7 cells assessed as migration rate at 1 nM incubated for 24 hrs by wound healing assay (reference value: 18.1 %); type: functional; parameters: scale not given: the % may be the effect or the level left
[2] = test system: B16-F10; assay: Induction of apoptosis in mouse B16-F10 cells assessed as necrotic cells at 1 nM incubated for 12 hrs by Annexin V-FITC/PI staining based flow cytometry (reference value: 0.25 %); type: functional
[3] = Toxicity in C57 mouse xenografted with mouse B16-F10 cells assessed as morphological abnormality in liver at 3.5 mg/kg, ip qd for 12 days in presence of NP-19 by H and E staining based analysis; type: organism-based; conditions: in vivo, 288 h, time 12 day
[4] = Toxicity in C57 mouse xenografted with mouse B16-F10 cells assessed as WBC count at 7 mg/kg, ip qd for 12 days by biochemical analysis (reference value: 8.240 to 8.340 10^9/L); type: organism-based; conditions: in vivo, 288 h, time 12 day
[5] = test system: B16-F10; assay: Induction of cell cycle arrest in mouse B16-F10 cells assessed as accumulation of cells at G2 phase at 2 nM incubated for 12 hrs by flow cytometry (reference value: 13.6 %); type: functional
[6] = test system: B16-F10; assay: Induction of apoptosis in mouse B16-F10 cells assessed as early apoptotic cells at 0.5 nM incubated for 12 hrs by Annexin V-FITC/PI staining based flow cytometry (reference value: 3.81 %); type: functional
[7] = Toxicity in C57 mouse xenografted with mouse B16-F10 cells assessed as monocytes count at 7 mg/kg, ip qd for 12 days by biochemical analysis (reference value: 0.080 to 0.610 10^9/L); type: organism-based; conditions: in vivo, 288 h, time 12 day
[8] = test system: B16-F10; assay: Induction of apoptosis in mouse B16-F10 cells assessed as viable cells at 0.5 nM incubated for 12 hrs by Annexin V-FITC/PI staining based flow cytometry (reference value: 93.6 %); type: functional; conditions: read-out: Activity
[9] = test system: MCF7; assay: Antiproliferative activity against human MCF7 cells incubated for 48 hrs by MTT assay; type: functional, cell-based; conditions: MCF7, 48 h
[10] = Toxicity in C57 mouse xenografted with mouse B16-F10 cells assessed as morphological abnormality in kidney at 7 mg/kg, ip qd for 12 days by H and E staining based analysis; type: organism-based; conditions: in vivo, 288 h, time 12 day
[11] = Toxicity in C57 mouse xenografted with mouse B16-F10 cells assessed as MPV level at 7 mg/kg, ip qd for 12 days by biochemical analysis (reference value: 6.200 to 15.000); type: organism-based; conditions: in vivo, 288 h, time 12 day
[12] = Toxicity in C57 mouse xenografted with mouse B16-F10 cells assessed as RDW-CV at 3.5 mg/kg, ip qd for 12 days in presence of NP-19 by biochemical analysis (reference value: 14.300 to 14.300); type: organism-based; conditions: in vivo, 288 h, time 12 day
[13] = test system: HCT-116; assay: Antiproliferative activity against human HCT-116 cells incubated for 48 hrs by MTT assay; type: functional, cell-based; conditions: HCT-116, 48 h
[14] = test system: B16-F10; assay: Induction of cell cycle arrest in mouse B16-F10 cells assessed as accumulation of cells at S phase at 1 nM incubated for 12 hrs by flow cytometry (reference value: 30.5 %); type: functional
[15] = Toxicity in C57 mouse xenografted with mouse B16-F10 cells assessed as PCT level at 3.5 mg/kg, ip qd for 12 days in presence of NP-19 by biochemical analysis (reference value: 0.425 to 5.300); type: organism-based; conditions: in vivo, 288 h, time 12 day
[16] = Toxicity in C57 mouse xenografted with mouse B16-F10 cells assessed as MPV level at 3.5 mg/kg, ip qd for 12 days in presence of NP-19 by biochemical analysis (reference value: 6.200 to 15.000); type: organism-based; conditions: in vivo, 288 h, time 12 day
[17] = test system: MCF7; assay: Induction of apoptosis in human MCF7 cells assessed as decrease in Bcl-2 level upto 30 nM incubated for 24 hrs by Western blot analysis; type: functional, cell-based
[18] = test system: B16-F10; assay: Induction of cell cycle arrest in mouse B16-F10 cells assessed as accumulation of cells at S phase at 2 nM incubated for 12 hrs by flow cytometry (reference value: 30.5 %); type: functional
[19] = Toxicity in C57 mouse xenografted with mouse B16-F10 cells assessed as monocytes count at 3.5 mg/kg, ip qd for 12 days in presence of NP-19 by biochemical analysis (reference value: 0.080 to 0.610 10^9/L); type: organism-based; conditions: in vivo, 288 h, time 12 day
[20] = Toxicity in C57 mouse xenografted with mouse B16-F10 cells assessed as PCT level at 7 mg/kg, ip qd for 12 days by biochemical analysis (reference value: 0.425 to 5.300); type: organism-based; conditions: in vivo, 288 h, time 12 day
[21] = test system: B16-F10; assay: Inhibition of cell migration in mouse B16-F10 cells assessed as migration rate at 1 nM incubated for 24 hrs by wound healing assay (reference value: 61.1 %); type: functional; parameters: scale not given: the % may be the effect or the level left
[22] = test system: B16-F10; assay: Induction of apoptosis in mouse B16-F10 cells assessed as viable cells at 2 nM incubated for 12 hrs by Annexin V-FITC/PI staining based flow cytometry (reference value: 93.6 %); type: functional; conditions: read-out: Activity
[23] = test system: B16-F10; assay: Induction of apoptosis in mouse B16-F10 cells assessed as increase in Bax level upto 30 nM incubated for 24 hrs by Western blot analysis; type: functional, cell-based
[24] = Toxicity in C57 mouse xenografted with mouse B16-F10 cells assessed as MCHC level at 3.5 mg/kg, ip qd for 12 days in presence of NP-19 by biochemical analysis (reference value: 324.000 to 683.000 g/L); type: organism-based; conditions: in vivo, 288 h, time 12 day
[25] = Toxicity in C57 mouse xenografted with mouse B16-F10 cells assessed as morphological abnormality in liver at 7 mg/kg, ip qd for 12 days by H and E staining based analysis; type: organism-based; conditions: in vivo, 288 h, time 12 day
[26] = test system: B16-F10; assay: Antitumor activity against mouse B16-F10 cells xenografted in C57 mouse at 7 mg/kg, ip qd for 12 days relative to control; type: functional; conditions: B16-F10, 288 h, time 12 day, read-out: TGI
[27] = Toxicity in C57 mouse xenografted with mouse B16-F10 cells assessed as eosinophil level at 7 mg/kg, ip qd for 12 days by biochemical analysis (reference value: 0.700 to 1.000 %); type: organism-based; conditions: in vivo, 288 h, time 12 day
[28] = test system: HepG2; assay: Antiproliferative activity against human HepG2 cells incubated for 48 hrs by MTT assay; type: functional, cell-based; conditions: HepG2, 48 h
[29] = Toxicity in C57 mouse xenografted with mouse B16-F10 cells assessed as eosinophil level at 3.5 mg/kg, ip qd for 12 days in presence of NP-19 by biochemical analysis (reference value: 0.700 to 1.000 %); type: organism-based; conditions: in vivo, 288 h, time 12 day
[30] = Toxicity in C57 mouse xenografted with mouse B16-F10 cells assessed as MCV level at 3.5 mg/kg, ip qd for 12 days in presence of NP-19 by biochemical analysis (reference value: 15.800 to 48.900 fL); type: organism-based; conditions: in vivo, 288 h, time 12 day
[31] = test system: B16-F10; assay: Antitumor activity against mouse B16-F10 cells xenografted in C57 mouse assessed as suppression of tumor growth at 7 mg/kg, ip qd for 12 days; type: functional, organism-based; conditions: time 12.0 day
[32] = Toxicity in C57 mouse xenografted with mouse B16-F10 cells assessed as basophil count at 3.5 mg/kg, ip qd for 12 days in presence of NP-19 by biochemical analysis (reference value: 0.060 to 25.500 10^9/L); type: organism-based; conditions: in vivo, 288 h, time 12 day

In the case of `Cc1nc(N(C)c2ccc3c(ccn3C)c2)c2sccc2n1`, the Activity [1] is reported as 15.7%, the Activity [2] is reported as 4.4% and the Activity [3] is reported as “Non-Toxic”. For the same molecule, the Activity [4] was 2.51 10^9/L, the Activity [5] was 72.8% and the Activity [6] was 11.2%. For the same molecule, the Activity [7] was 0.01 10^9/L, the viability at 0.0005 µM [8] was 80.1% and the IC50 [9] was 9.53 nM. The Activity [10] was “Non-Toxic”, the Activity [11] was 6 and the Activity [12] was 14. The IC50 [13] was 0.38 nM, the Activity [14] was 22.3% and the Activity [15] was 0.179. The Activity [16] was 6, the Activity [17] was “Active” and the Activity [18] was 19.3%. For the same molecule, the Activity [19] was 0.06 10^9/L, the Activity [20] was 0.329 and the Activity [21] was 57.5%. For the same molecule, the viability at 0.002 µM [22] was 75%, the Activity [23] was “Active” and the Activity [24] was 343 g/L. For the same molecule, the Activity [25] was “Non-Toxic”, the inhibition in vivo at 7 mg/kg [26] was 63.3% and the Activity [27] was 0.3%. The IC50 [28] was 9.37 nM, the Activity [29] was 0.3% and the Activity [30] was 15.7 fL. For the same molecule, the Activity [31] was “Active” and the Activity [32] was 0.01 10^9/L.
